Where no end group is shown, it is not given here.
How the values were obtained:
CIA rats [1] = test: APL20 in combination with methotrexate in CIA rats (Example 11); assay type: in vivo, rat
rats = settings: cited from earlier work
CIA rats [2] = test: APL20 in combination with methotrexate in CIA rats (Example 11); assay type: in vivo, rat; remark: listed apart in the source
Excerpt: Female Lewis rats were used to establish CIA model. Methods: the rats were immunized by intradermal injecting the emulsion prepared by bovine C II and IFA at the tail head. After 7 days, the rats were boosted once with the same method. Thereafter, the morphological changes of the four paws of the rats were examined every day, and the rats were randomly assigned to the treatment group at the inflammation score of 1. […] Another 8 female Lewis rats were not subjected to model establishment and set as the control group. PBS was administrated to both the model group and the control group. Corresponding drugs were administrated to the rats in each group by tail vein injection at the volume of 5 mL/kg, in which methotrexate was administrated twice a week, and other drugs were administrated once every other day, for 21 consecutive days, followed by a recovery period of 21 days. The inflammation scores of the four paws of the rats in each group were evaluated during the administration (once every other day), and the area under the curve (AUC) of the inflammation score was calculated during the administration. During drug discontinuation, the inflammation scores of the four paws of the rats in each group were continuously evaluated (once every other day), and the rats were sacrificed on day 22 after drug discontinuation. HE staining was performed on the ankle joint for tissue injury evaluation. The specific scoring criteria were as follows: 0=normal synovial tissue; 1=synovial hyperplasia and inflammatory cell infiltration; 2-pannus formation and cartilage erosion; 3=destruction of most of the cartilage with subchondral bone erosion; 4=loss of joint integrity, ankylosis.

HLA-DR1 = HLA-DR1 (Homo sapiens, UniProt P01903+P01911, A100R/D57E/F55L/F60I/F76Y/I96L/L162R/M171V/P40L/Q125E/R42F/V115G/Y59C); test: Determination of polypeptide affinity (fluorescence polarization competition); assay type: binding
Protocol: The reaction system was at pH 7.4. Before use, protease inhibitor cocktail was added, and incubated at 37° C. for 30 min. The fluorescence polarization values were read. The mean value of the free labeled polypeptides was set as FP_free, and the value of the well without the competitive peptide was set as FP_no_comp. The relative binding rate of other wells was calculated according to the formula=(FP_sample−FP_free)/(FP_no_comp−FP_free). A curve was plotted using the relative binding rate and the concentration of the test polypeptide, and the IC50 value was calculated by curve fitting.

[3] = inflammation score AUC, APL20 0.2 mmol once every other day, methotrexate 0.5 mg/kg twice a week, i.v.

Molecule | Incidence of infection in mice (CIA rats [1]) | half lethal dose (rats) | inflammation score during drug discontinuation compared with that at the time of drug discontinuation (CIA rats [2]; 21 days of observation after stopping at day 21) | Pathological score during 21 days of drug discontinuation (CIA rats [2]; HE staining of ankle joint, score 0-4) | AUC, during drug discontinuation (day 22-42) (CIA rats [2]; inflammation score AUC after stopping administration at day 21) | AUC, during administration (day 1-21) (CIA rats [2]; [3]) | AUC, the first week during administration (CIA rats [2]; [3]) | AUC, during administration (day 1-21) (CIA rats [2]; inflammation score AUC, APL20 0.2 mmol once every other day, methotrexate 0.5 mg/kg twice a week, i.v., listed as methotrexate) | IC50 (HLA-DR1)
CN(Cc1cnc2nc(N)nc(N)c2n1)c1ccc(C(=O)N[C@@H](CCC(=O)O)C(=O)O)cc1 [Methotrexate, methotrexate] | 20% | 43 mg/kg | significantly increased | 2.87 ± 0.79 | 100.13 ± 50.66 | 67.69 ± 22.72 | 16.58 ± 5.23 | 67.69 | –
PGYVKQGTLGLAT [APL3] | – | – | – | – | – | – | – | – | 3.35 µM
